# Laboratory results from patent publication US5906922A, “Delivery of nucleic acids” (Commonwealth Scientific and Industrial Research Organisation, priority 1994, dated 1999).
# Where a SMILES comes first, the peptide text is derived from it. The star is where a group is joined. NHC(CH2O-Palmitoyl)3 = CCCCCCCCCCCCCCCC(=O)OCC(COC(=O)CCCCCCCCCCCCCCC)(COC(=O)CCCCCCCCCCCCCCC)N*; X5 = CCCCCCCCCCCCCCCC(=O)OCC(CO)(COC(=O)CCCCCCCCCCCCCCC)N*; X4 = CCCCCCCCCCCC(=O)OCC(CO)(COC(=O)CCCCCCCCCCC)N*; X1 = CCCCCCCCCCCCCCCC(=O)OCC(CO)(CO)N*; NHC(CH2OH)3 = OCC(CO)(CO)N*
# Key:
# [1] = tested on: Cos 1 cells; test: Transfection of pSVLCAT, CAT assay, Cos 1; assay type: cell-based, African Green Monkey; conditions: for CAT activity (mean): 25 μl lysate, 135 min 37° C.; for transfection, number of palmitates: R1-R4 experiment a, Cos 1, K2 A linker; for Transfection (CAT): Table 1, Cos 1, optimised level of agent
# Description: To test the transfection properties of the lead compound K3ATP3 (VerafectinA3), whole uncut plasmid carrying the gene encoding CAT (chloramphenicol acetyl transferase) under the control of the SV40 late promoter, pSVLCAT (Cameron, F. H. and Jennings, P. A. (1989) PNAS 86, 9139-9143) was mixed with the test agent and put on Cos 1 cells under various conditions. After 48 hours of culture the level of secreted CAT was assayed from the culture medium.
# Solution I: 1 μg Plasmid DNA in 500 μl Dulbeccos Modified Eagles Medium (DME)
# Solution II: 0-20 μl VerafectinA3 (2.5 mg/ml 25% DMSO) in 500 μl DME, Vortex
# Combine solution I and II, vortex briefly and incubate at room temperature for 10 min.
# Add mix to washed cells in 60 mm tissue culture dishes (seeded 0.5×10^6 /dish previous day) for 6 hrs at 37° C., 5% C02. Add 2 ml DME+10% FCS for remainder of 48 hrs. Assay CAT levels in tissue culture medium (Sleigh, M. J. (1986) Anal. Biochem. 156.251-256).
# a--Compare VerafectinA3 dissolved in DMSO or ethanol.
# b--Compare VerafectinA3 on cells 6 hrs to overnight. VerafectinA3 at 10 mg/ml in 100% solvent was diluted to 2.5 mg/ml with water.
# Transfection was carried out as for experiment 1. VerafectinA3 was left in contact with the cells for varying times.
# Protocol was the same for the Verafectins as described above. Lipofectamine protocol was according to manufacturers instructions. Cos 1 cells were seeded at 5×10^5 /60 mm dish and adhered overnight in DME with 10% FCS.
# Solution A: 0.5 μg pSVLCAT/60 mm dish.
# Solution B: Lipofectamine 10 and 15 μl 2 mg/ml (mixed formulation 3:1 with DOPE).
# OR; VerafectinA3 and VerafectinG2 20 μl 2 mM (2.8 and 2.3 mg/ml respectively) stock.
# OR; VerafectinG2 was also tested with an equimolar amount of DOPE. VerafectinG2 and DOPE were mixed in DDME and vortexed for 30 seconds before use. Solutions A and B were combined before overlaying on washed cells.
# The serum free incubation period in the presence of test agents and DNA was 6 hrs, then 1 ml DME+10% FCS was added. At 24 hours medium was changed to 2 ml fresh DME+10% FCS until harvest at 48 hrs.
# (§1) Cell lines Cos 1 or CHO were transfected with 0.5 μg of pSVLCAT or 2 μg of pPGKlacZ plasmid using a range of concentrations of each transfection compound. The optimal concentration of compound, that is the concentration giving the highest level of CAT at 48 hours or the greatest percentage of lac z (β-galactosidase) staining cells at 24 hours was used to collate data for Table 1. As all compounds were not tested in a single experiment, absolute figures indicating transfection were not used. Rather, symbols are used to indicate the transfection efficiency relative to Lipofectamine (BRL), which was included as a control in all experiments. Table 1 thus indicates the relative efficiencies of a number of compounds in mediating the transfection of at least one cell type.
# (§2) All test lipopeptide reagents were originally dissolved at 10 mM in 75% DMSO, and subsequently diluted with water to make a 2 mM stock stored at 4° C. Volumes of 2 mM stock lipopeptide ranging from 2 μl to 15 μl were diluted in 500 μl of DDME. 1 μg of plasmid pSVLCAT was separately diluted in 500 μl of DDME. Solutions were combined for 10-20 min at room temperature before adding to 500 μl of DDME in 60 mm dishes of subconfluent CHO cells (2×10^5 day-1) or Cos 1 cells (5×10^5 day-1); washed free of serum with DDME.
# (§3) Cells were incubated for 6 hrs under standard conditions of 37° C. and 5% CO2 for 6 hours. 1.5 ml of DME/Hams+10% FCS (CHO) or DME+10% FCS (Cos 1) was added to the cells for overnight incubation. Fresh DME/Hams+10% FCS or DME+10% FCS was used to replace the medium for a further 24 hours prior to harvest. Cell lysates were prepared and assayed for CAT activity as described above. For Cos 1 cells, culture supernatants were assayed for CAT activity.
# For transfection of pSVLCAT and subsequent assay of CAT enzyme, experiments "a" and "b" were carried out as described above.
# [2] = tested on: CHO cells; test: Transfection of pSVLCAT, CAT assay, CHO; assay type: cell-based, Chinese Hamster; conditions: for Transfection (CAT): Table 1, CHO, optimised level of agent
# Description: Protocol was the same for Verafectin and Transfectam (see above) with the exception that 0.5 μg of pSVLCAT DNA was used /60 mm dish.
# Lipofectamine protocol was according to manufacturer's instructions. 0.5 μg pSVLCAT/60 mm dish. CHO cells seeded 1×10^5 /60 mm dish and adhered overnight in DME/Hams medium with 10% FCS.
# Transfectam 5 or 10 μl 1mg/400 μl stock solution.
# Lipofectamine 5 or 10 μl 2 mg/ml (mixed formulation 3:1 with DOPE). VerafectinA3 (K3ATP3) and VerafectinG2 (K3G[Glycine]TP2) each at 5, 10 and 15 μl of 2 mM (2.8 and 2.3 mg/ml respectively) stock.
# The serum free incubation period in the presence of test agents and DNA was 6 hours, then 1 ml DME/Hams+10% FCS was added. At 24 hrs the medium was changed to 2 ml of fresh DME/Hams+10% FCS until harvest at 48 hrs.
# as §1, §2, §3
# a. Using the standard transfection procedure described above, and 1 μg plasmid pSVLCAT, these formulations were tested on CHO cells at a single concentration equivalent to 10 μl of Verafectin A2 (2 mM) per sample and compared to unformulated compound and Lipofectamine in the same cell type. CAT production was assayed 48 hours after transfection.
# [3] = tested on: Cos 1 cells; assay type: cell-based, African Green Monkey
# Description: Relative levels of cytotoxicity were also assayed in subsequent experiments using the dye MTS, marketed as Cell titre 96 Aqueous (Promega).
# (§4) The ratio of [lipid]/[DNA] at which that maximum was achieved is shown. Experiments shown were carried out in Cos 1 cells, as described above. MTS OD is a measure of relative viabilility of the cells exposed to the different agents, a higher value indicates greater cell viability. * These points were taken from a separate experiment and some slight variation between absolute numbers should be expected between experiments.
# (§5) The ratio of [lipid]/[DNA] at which that maximum was achieved is shown in brackets for the two different cell types in the following order; (Cos 1) (CHO). Experiments shown were carried out in Cos 1 cells, as described above. Viability was measured with the dye alamar blue . # Denotes compounds tested in a separate experiment. * Viability in this experiment was determined with MTS. OD is a measure of relative viability of the cells exposed to the different agents, and as with alamar blue, a higher value indicates greater cell viability.
# [4] = tested on: Cos 1 cells; test: β-gal microtitre plate transfection assay, Cos 1; assay type: cell-based, African Green Monkey; conditions: for units β-gal: Table 2, Cos 1, highest reading of 72 conditions; for β-gal (Cos 1): Table 3, Cos 1, highest reading of 72 conditions
# From the text: For experiment "c", a plasmid pPGKlaczNLS encoding β-galactosidase under the control of the mouse PGK promoter (kind gift from G.Hannan) or pSVGAL which utilises the SV40 early promoter (Sleigh, M. J. and Lockett, T. J. (1985). EMBO J. 4:3831-3837),was transfected. This experiment and assay were modified from Feigner et al J. Biol Chem. 269(4) 2550-2561 1994. This protocol allows the simultaneous assessment of 72 different combinations and concentrations of DNA and test agent in a microtitre tray. […] Cytotoxicity was assessed using alamar blue, and a sample graph is shown for experiment a.
# Compounds were tested for their ability to transfect either the CAT or β-gal gene carried on plasmids, and assayed as described above.
# as §4
# Each of these compounds was tested for transfection ability and cytotoxicity on standard cell lines using standard conditions as described above.
# as §5
# [5] = "x" peptide experiment b, Cos 1
# [6] = "x" peptide experiment a, CHO, 25 μl lysate, 20 min assay at 37° C., optimal level
structure (smiles),measurement,setting,value
CCCCCCCCCCCCCCCC(=O)OCC(CO)(COC(=O)CCCCCCCCCCCCCCC)NC(=O)[C@H](C)NC(=O)[C@@H](N)CCCCN [K1ATP2],CAT activity (mean),[1]; [5],12670 cpm
CCCCCCCCCCCCCCCC(=O)OCC(CO)(CO)NC(=O)[C@H](C)NC(=O)[C@H](CCCCN)NC(=O)[C@@H](N)CCCCN [K2ATP1],"transfection, number of palmitates",[1],very inefficient
CCCCCCCCCCCCCCCC(=O)OCC(CO)(COC(=O)CCCCCCCCCCCCCCC)NC(=O)[C@H](C)NC(=O)[C@H](CCCCN)NC(=O)[C@@H](N)CCCCN [K2ATP2],CAT activity (mean),[2]; [6],5418 cpm
same,transfection with second lysine relative to single K,[1]; [5],~5 times
same,CAT activity (mean),[1]; [5],"62,215 cpm"
same,"transfection, linkers A and L compared","[1]; ""y"" linker experiment b, Cos 1",very similar activities
CCCCCCCCCCCCCCCC(=O)OCC(COC(=O)CCCCCCCCCCCCCCC)(COC(=O)CCCCCCCCCCCCCCC)NC(=O)[C@H](C)NC(=O)[C@H](CCCCN)NC(=O)[C@@H](N)CCCCN [K2ATP3],"transfection, number of palmitates",[1],high levels of transfection
CCCCCCCCCCCCCCCC(=O)OCC(CO)(COC(=O)CCCCCCCCCCCCCCC)NC(=O)[C@H](CCCCN)NC(=O)[C@H](CCCCN)NC(=O)[C@@H](N)CCCCN [K2KTP2],"transfection, dipalmitate versus tripalmitate","[1]; R1-R4 experiment d, Cos 1, lysine linker",significantly less active than the tripalmitate molecule
CCCCCCCCCCCC(=O)OCC(CO)(COC(=O)CCCCCCCCCCC)NC(=O)[C@H](C)NC(=O)[C@H](CCCCN)NC(=O)[C@H](CCCCN)NC(=O)[C@@H](N)CCCCN [K3ATL2] (H-KKKA-X4),MTS OD490-655,[3],1.554
same,Viability (Cos 1),[3],1.55
same,ratio [lipid]/[DNA] at which maximum was achieved,"[4]; Table 2, Cos 1",0.69
same,units β-gal,[4],1.06 × 10^-5 units
same,ratio [lipid]/[DNA] at which maximum was achieved,"[4]; Table 3, Cos 1",.69
same,β-gal (Cos 1),[4],1.06 × 10^-5
CCCCCCCCCCCCCC(=O)OCC(CO)(COC(=O)CCCCCCCCCCCCC)NC(=O)[C@H](C)NC(=O)[C@H](CCCCN)NC(=O)[C@H](CCCCN)NC(=O)[C@@H](N)CCCCN [K3ATM2],MTS OD490-655,[3],1.56
same,Viability (Cos 1),[3],1.56
same,ratio [lipid]/[DNA] at which maximum was achieved,"[4]; Table 2, Cos 1",0.35
same,units β-gal,[4],3.46 × 10^-5 units
same,ratio [lipid]/[DNA] at which maximum was achieved,"[4]; Table 3, Cos 1",.35
same,β-gal (Cos 1),[4],3.46 × 10^-5
C[C@H](NC(=O)[C@H](CCCCN)NC(=O)[C@H](CCCCN)NC(=O)[C@@H](N)CCCCN)C(=O)NC(CO)(CO)CO [K3ATP0] (H-KKKA-{NHC(CH2OH)3}),Transfection (CAT),[1],-
"CCCCCCCCCCCCCCCC(=O)OCC(CO)(COC(=O)CCCCCCCCCCCCCCC)NC(=O)[C@H](C)NC(=O)[C@H](CCCCN)NC(=O)[C@H](CCCCN)NC(=O)[C@@H](N)CCCCN [K3ATP2, trilysine alanine tris dipalmitate]","CAT levels relative to Lipofectamine, non-liposome formulation","[2]; CHO, unformulated",around 5%
same,CAT activity (mean),"[2]; R1-R4 experiment e, CHO",984 cpm
same,Transfection (CAT),[2],+/-
same,Transfection (CAT),[1],+/-
NCCCC[C@H](NC(=O)[C@H](CCCCN)NC(=O)[C@@H](N)CCCCN)C(=O)NCC(=O)NC(CO)(CO)CO [K3GTP0] (H-KKKG-{NHC(CH2OH)3}),Transfection (CAT),[1],-
CCCCCCCCCCCCCCCC(=O)OCC(CO)(CO)NC(=O)CNC(=O)[C@H](CCCCN)NC(=O)[C@H](CCCCN)NC(=O)[C@@H](N)CCCCN [K3GTP1] (H-KKKG-X1),Transfection (CAT),[2],+
same,Transfection (CAT),[1],+
CCCCCCCCCCCCCCCC(=O)OCC(COC(=O)CCCCCCCCCCCCCCC)(COC(=O)CCCCCCCCCCCCCCC)NC(=O)CNC(=O)[C@H](CCCCN)NC(=O)[C@H](CCCCN)NC(=O)[C@@H](N)CCCCN [K3GTP3] (H-KKKG-{NHC(CH2O-Palmitoyl)3}),Transfection (CAT),[2],+
same,Transfection (CAT),[1],+/-
CCCCCCCCCCCCCCCC(=O)OCC(CO)(COC(=O)CCCCCCCCCCCCCCC)NC(=O)[C@H](C)NC(=O)[C@H](CCCCN)NC(=O)[C@H](CCCCN)NC(=O)[C@H](CCCCN)NC(=O)[C@@H](N)CCCCN [K4ATP2] (H-KKKKA-X5),Transfection (CAT),[1],+
CCCCCCCCCCCCCCCC(=O)OCC(CO)(COC(=O)CCCCCCCCCCCCCCC)NC(=O)[C@H](C)NC(=O)[C@H](CCCCN)NC(=O)[C@H](CCCCN)NC(=O)[C@H](CCCCN)NC(=O)[C@H](CCCCN)NC(=O)[C@@H](N)CCCCN [K5ATP2] (H-KKKKKA-X5),CAT activity (mean),[2]; [6],132 cpm
CCCCCCCCCCCCCCCC(=O)OCC(COC(=O)CCCCCCCCCCCCCCC)(COC(=O)CCCCCCCCCCCCCCC)NC(=O)[C@H](C)NC(=O)[C@H](CCCCN)NC(=O)[C@H](CCCCN)NC(=O)[C@H](CCCCN)NC(=O)[C@H](CCCCN)NC(=O)[C@@H](N)CCCCN [K5ATP3] (H-KKKKKA-{NHC(CH2O-Palmitoyl)3}),CAT activity (mean),[2]; [6],1785 cpm
same,mean level of CAT activity,"[2]; ""x"" peptide experiment c, CHO, 2 hours incubation of 20 μl lysate",6363
